In paper PMC9176662, “Design, synthesis, molecular modeling and biological evaluation of novel Benzoxazole-Benzamide conjugates via a 2-Thioacetamido linker as potential anti-proliferative agents, VEGFR-2 inhibitors and apoptotic inducers” (Journal of Enzyme Inhibition and Medicinal Chemistry, 2022):

Legend:
HCT-116 cells = test: Anti-proliferative activity, SRB assay, HCT-116; type: cell-based, human; conditions: for IC50: Homo sapiens, SRB assay, 72 h exposure, mean ± SD of three separate experiments; for HCT-116 SI (selectivity index): ratio of IC50 for normal cells (WI-38) to IC50 for HCT-116
Text: (§1) Several of these derivatives were reported as acting as competitive inhibitors of different tyrosine kinases, with potent cytotoxic activity against various cell lines[58]^,[59]. […] Thus, in this study a novel series of benzoxazole-benzamide conjugates was initially evaluated for their potential anti-cancer activity against colon cancer cell line (HCT-116), breast cancer cell line (MCF-7) and normal human fibroblasts (WI-38), using the Sulforhodamine B colorimetric (SRB) assay.
(§2) 2.1. Anti-proliferative activity against HCT-116 and MCF-7 human cancer cells lines.
(§3) The sulforhodamine B (SRB) assays were performed according to Skehan et al..
(§4) Briefly, exponentially growing cells were trypsinized, counted and seeded at the appropriate densities (5000 cells/100 μL/ well) into 96-well microtiter plates. Cells were incubated in a humidified atmosphere at 37 °C for 24 h. Then, the cells were exposed to the tested compounds at the desired concentrations (0.01, 0.1, 1, 10, and 100 μM) or to 1% dimethyl sulfoxide (DMSO) for 72 h. At the end of the treatment period, the media were removed, and the cells were fixed with 10% trichloroacetic acid at 4 °C for 1 h. Following, the cells were washed with tap water four times and incubated with SRB 0.4% for 30 min. Excess dye was removed by washing repeatedly with 1% (vol/vol) acetic acid. The protein-bound dye was dissolved in 10 mM Tris base solution for (optical density) OD determination at 510 nm using a Spectra Max plus Microplate Reader (Molecular Devices, CA). Cell viability was expressed relative to the untreated control cells. […]

MCF-7 cells = test: Anti-proliferative activity, SRB assay, MCF-7; type: cell-based, human; conditions: for IC50: Homo sapiens, SRB assay, 72 h exposure, mean ± SD of three separate experiments; for MCF-7 SI (selectivity index): ratio of IC50 for normal cells (WI-38) to IC50 for MCF-7
Text: as §1, §2, §3, §4

WI-38 cells = test: Cytotoxicity against normal fibroblasts, SRB assay, WI-38; type: cell-based; conditions: normal human fibroblasts, 72 h, mean ± SD of three separate experiments
Text: as §1, §2, §3, §4

VEGFR-2 Protein Kinase = biological target: T1, VEGFR-2 Protein Kinase (Homo sapiens, UniProt P35968); test: VEGFR-2 inhibitory activity (HTScan VEGF Receptor-2 Kinase Assay Kit, ELISA); type: biochemical; conditions: mean of three individual experiments
T1 construct: It includes active VEGFR-2 kinase; purchased HTScan VEGF Receptor-2 Kinase Assay Kit
Procedure: 2.2. VEGFR-2 Inhibitory activity
VEGFR-2 ELISA (Enzyme-Linked Immunosorbent Assay) kits (HTScan® VEGF Receptor-2 […]
phospho-tyrosine antibody) for detection of the phosphorylated form of the substrate peptide).
On a 96-well plate, a particular VEGFR-2 antibody was seeded and 100 μL of the normal solution or the tested compound tested was applied, incubated at room temperature for 2.5 h and washed. Then, 100 μL of the prepared biotin antibody was added, incubated for an additional 1 h at room temperature and washed. Following, 100 μL of streptavidin solution was added at room temperature, incubated for 45 minutes and then, 100 μL of TMB Substrate solution was applied and incubated at room temperature for 30 minutes. Finally, 50 μL stop solution was added and the absorption was measured at 450 nm instantly. The standard curve, the X -axis concentrations, and the Y-axis absorbance were drawn. […]

T1 sequence (P35968 20-1356): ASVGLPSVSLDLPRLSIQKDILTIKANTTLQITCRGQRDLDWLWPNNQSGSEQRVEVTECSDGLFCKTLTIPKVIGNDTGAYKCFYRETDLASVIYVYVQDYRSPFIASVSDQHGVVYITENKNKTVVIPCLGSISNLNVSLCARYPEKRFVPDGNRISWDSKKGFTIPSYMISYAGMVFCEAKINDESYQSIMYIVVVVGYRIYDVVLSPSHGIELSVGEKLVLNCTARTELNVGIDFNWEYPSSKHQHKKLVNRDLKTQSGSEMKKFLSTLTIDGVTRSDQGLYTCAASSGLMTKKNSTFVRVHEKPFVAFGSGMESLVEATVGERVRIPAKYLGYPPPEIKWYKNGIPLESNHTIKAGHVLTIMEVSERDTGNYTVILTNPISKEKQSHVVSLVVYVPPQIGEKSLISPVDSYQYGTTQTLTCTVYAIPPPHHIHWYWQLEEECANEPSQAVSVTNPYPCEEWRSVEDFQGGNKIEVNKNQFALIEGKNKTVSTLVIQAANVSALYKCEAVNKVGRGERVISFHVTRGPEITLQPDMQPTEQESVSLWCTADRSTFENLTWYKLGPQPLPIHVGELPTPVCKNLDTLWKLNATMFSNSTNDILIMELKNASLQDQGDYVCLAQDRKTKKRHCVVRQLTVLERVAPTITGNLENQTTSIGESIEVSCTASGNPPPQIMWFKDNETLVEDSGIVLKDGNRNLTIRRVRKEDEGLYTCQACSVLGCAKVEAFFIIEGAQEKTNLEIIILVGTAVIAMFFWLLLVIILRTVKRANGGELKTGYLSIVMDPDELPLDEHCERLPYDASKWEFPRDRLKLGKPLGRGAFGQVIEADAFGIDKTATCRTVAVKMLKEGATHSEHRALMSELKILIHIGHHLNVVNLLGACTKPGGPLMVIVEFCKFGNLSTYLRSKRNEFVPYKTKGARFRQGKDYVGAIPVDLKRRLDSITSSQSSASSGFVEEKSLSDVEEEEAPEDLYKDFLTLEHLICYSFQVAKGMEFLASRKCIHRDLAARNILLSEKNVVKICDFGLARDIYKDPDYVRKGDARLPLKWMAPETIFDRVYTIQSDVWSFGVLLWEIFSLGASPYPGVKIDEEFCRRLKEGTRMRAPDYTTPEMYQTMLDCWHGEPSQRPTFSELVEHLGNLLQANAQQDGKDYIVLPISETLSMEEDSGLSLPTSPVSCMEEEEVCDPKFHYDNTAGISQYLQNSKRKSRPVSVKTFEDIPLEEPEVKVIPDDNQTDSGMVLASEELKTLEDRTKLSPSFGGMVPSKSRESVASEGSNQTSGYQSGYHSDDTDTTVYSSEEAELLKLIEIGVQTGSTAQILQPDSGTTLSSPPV

IC50 (HCT-116 cells; HCT-116, 72 h) [µM] | IC50 (MCF-7 cells; MCF7, 72 h) [µM] | melting point [°C] | IC50 (VEGFR-2 Protein Kinase) [nM] | Structure (SMILES) | HCT-116 SI (selectivity index) (HCT-116 cells) | MCF-7 SI (selectivity index) (MCF-7 cells) | IC50 (WI-38 cells) [µM] | IC50 (HCT-116 cells; HCT-116) [µM] | IC50 (MCF-7 cells; MCF7) [µM]
20.9 ± 0.025 | 12.4 ± 0.007 | 256 to 258 |  | Cc1ccc2oc(SCC(=O)Nc3ccc(C(=O)NC4CCCCC4)cc3)nc2c1 [Compound 5] | 4.0 | 6.9 | 85.4 ± 0.55 |  | 
17.1 ± 0.008 | 12.3 ± 0.008 | 260 to 262 | 649 ± 8 | O=C(CSc1nc2cc(Cl)ccc2o1)Nc1ccc(C(=O)NC2CCCCC2)cc1 [Compound 9] | 4.4 | 6.0 | 74.6 ± 0.53 |  | 
9.1 ± 0.005 | 9 ± 0.005 | 270 to 272 |  | O=C(CSc1nc2ccccc2o1)Nc1ccc(C(=O)NNC(=O)c2ccccc2)cc1 [Compound 13] | 10.0 | 10.1 | 91.3 ± 0.6 |  | 
 |  |  |  | CNC(=O)c1cc(Oc2ccc(NC(=O)Nc3ccc(Cl)c(C(F)(F)F)c3)cc2)ccn1 [Sorafenib, reference compound] |  |  |  | 11.6 ± 0.012 | 10.5 ± 0.014
32 ± 0.002 | 24 ± 0.011 | 265 to 267 |  | Cc1ccc2oc(SCC(=O)Nc3ccc(C(=O)Nc4ccc(Cl)cc4)cc3)nc2c1 [Compound 7] | 4.0 | 5.3 | 128.2 ± 0.75 |  | 
18.5 ± 0.014 | 11.7 ± 0.014 | 250 to 252 |  | O=C(CSc1nc2ccccc2o1)Nc1ccc(C(=O)Nc2ccccc2)cc1 [Compound 2] | 3.0 | 4.8 | 56.7 ± 0.36 |  | 
30.7 ± 0.011 | 19.1 ± 0.006 | 240 to 242 |  | Cc1ccc2oc(SCC(=O)Nc3ccc(C(=O)Nc4ccccc4)cc3)nc2c1 [Compound 6] | 4.0 | 6.5 | 124.6 ± 0.7 |  | 
23.2 ± 0.012 | 23.6 ± 0.015 | 260 to 262 |  | COc1ccc(NC(=O)c2ccc(NC(=O)CSc3nc4ccccc4o3)cc2)cc1 [Compound 4] | 2.2 | 2.2 | 51.5 ± 0.4 |  | 
9.7 ± 0.013 | 9.5 ± 0.009 | 250 to 252 |  | Cc1ccc2oc(SCC(=O)Nc3ccc(C(=O)NNC(=O)c4ccccc4)cc3)nc2c1 [Compound 14] | 9.9 | 10.1 | 96.5 ± 0.65 |  | 
12.9 ± 0.014 | 15.3 ± 0.01 | 277 to 279 | 597 ± 7 | O=C(CSc1nc2cc(Cl)ccc2o1)Nc1ccc(C(=O)NNC(=O)c2ccccc2)cc1 [Compound 15] | 10.2 | 8.6 | 131.5 ± 0.8 |  | 
24.2 ± 0.019 | 22.7 ± 0.008 | 238 to 240 |  | O=C(CSc1nc2ccccc2o1)Nc1ccc(C(=O)Nc2ccc(Cl)cc2)cc1 [Compound 3] | 2.4 | 2.6 | 59.3 ± 0.45 |  | 
10.4 ± 0.01 | 9.4 ± 0.016 | 266 to 268 | 385 ± 5 | COc1ccc(NC(=O)c2ccc(NC(=O)CSc3nc4cc(Cl)ccc4o3)cc2)cc1 [Compound 12] | 12.1 | 13.4 | 126.2 ± 0.75 |  | 
16.7 ± 0.012 | 16.1 ± 0.011 | 245 to 247 | 704 ± 9 | O=C(CSc1nc2cc(Cl)ccc2o1)Nc1ccc(C(=O)Nc2ccccc2)cc1 [Compound 10] | 7.5 | 7.8 | 125.5 ± 0.72 |  | 
28.8 ± 0.01 | 22.3 ± 0.004 | 258 to 260 |  | COc1ccc(NC(=O)c2ccc(NC(=O)CSc3nc4cc(C)ccc4o3)cc2)cc1 [Compound 8] | 4.7 | 6.0 | 135.4 ± 0.85 |  | 
